# Test results: publication PMC11873646 (Acta Pharmaceutica Sinica. B, 2024)
# Like-named read-outs stand apart in the source and are kept apart here.
# Key:
# platelet P2Y12 receptor = platelet P2Y12 receptor (Rattus norvegicus, UniProt Q9EPX4)
# [1] = system: ADP-induced platelet aggregation
# [2] = single oral dose 10 mg/kg, 4 h after administration, P < 0.05
# Sequence of platelet P2Y12 receptor (Q9EPX4 whole entry): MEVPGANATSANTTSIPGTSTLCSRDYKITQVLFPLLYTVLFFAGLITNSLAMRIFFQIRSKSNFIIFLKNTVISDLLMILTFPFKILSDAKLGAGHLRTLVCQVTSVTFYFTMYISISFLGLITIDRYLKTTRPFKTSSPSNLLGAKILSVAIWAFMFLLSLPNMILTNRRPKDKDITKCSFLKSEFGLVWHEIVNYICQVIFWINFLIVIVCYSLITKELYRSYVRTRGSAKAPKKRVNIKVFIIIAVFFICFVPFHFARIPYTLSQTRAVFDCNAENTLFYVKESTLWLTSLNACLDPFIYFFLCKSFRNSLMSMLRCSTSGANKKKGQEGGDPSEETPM
smiles,measurement,setting,value
"COC(=O)[C@H](c1ccccc1Cl)N1CCc2sccc2C1 [Clop, Clopidogrel]",change in P2Y12 occupancy between D1H4 and D7H4,"platelet P2Y12 receptor; 3 mg/kg oral for 7 consecutive days, male SD rats, P < 0.01",gradual and significant increase
same,decrease in P2Y12 occupancy in T2DM rats vs control rats,"platelet P2Y12 receptor; single oral dose 10 mg/kg, 1 h post-administration, P < 0.05",50.7%
same,decrease in P2Y12 occupancy in T2DM rats vs control rats,"platelet P2Y12 receptor; single oral dose 10 mg/kg, 4 h post-administration, P < 0.001",64.4%
same,time of maximal P2Y12 occupancy,"platelet P2Y12 receptor; single oral dose 10 mg/kg, male SD rats, post-administration",4 h
same,mean IPA,"[1]; 3 mg/kg repeated oral dose group, male SD rats, 5 umol/L ADP",14.0 ± 12.5%
same,mean IPA,"[1]; 30 mg/kg repeated oral dose group, male SD rats, 5 umol/L ADP",59.6 ± 10.1%
same,time for platelet activity to recover after cessation of administration,"[1]; 3, 10 and 30 mg/kg for 7 days, all three dose groups, male SD rats",five
same,decrease in IPA vs Clop alone,"[1]; co-administration 10 mg/kg Clop + 10 mg/kg omeprazole, after 7 days, P < 0.01",57.3%
same,increase in MPA vs Clop alone,"[1]; co-administration 10 mg/kg Clop + 10 mg/kg omeprazole, after 7 days, P < 0.05",21.1%
same,decrease in IPA in T2DM rats vs control rats,[1]; [2],48.3%
same,increase in MPA in T2DM rats vs control rats,[1]; [2],33.2%
same,"time of peak maximal inhibitory effect on platelet aggregation (MPA, IPA)","[1]; single oral dose 10 mg/kg, male SD rats, post-administration, 5 umol/L ADP",4 h
